{"source": "PubChem BioAssay (NCI)", "experiment_in_all_cases": "NCI anticancer screen, dose series, 48 h", "key": {"SF-539 CNS": {"test_system": "SF-539 CNS"}, "SN12C renal": {"test_system": "SN12C renal"}, "SK-MEL-2 melanoma": {"test_system": "SK-MEL-2 melanoma"}, "NCI-H226 lung": {"test_system": "NCI-H226 lung"}, "UACC-62 melanoma": {"test_system": "UACC-62 melanoma"}, "SR leukemia": {"test_system": "SR leukemia"}, "CAKI-1 renal": {"test_system": "CAKI-1 renal"}, "HOP-92 NSCLC": {"test_system": "HOP-92 NSCLC"}, "SK-MEL-5 melanoma": {"test_system": "SK-MEL-5 melanoma"}, "MDA-MB-435": {"test_system": "MDA-MB-435"}, "IGROV1 ovarian": {"test_system": "IGROV1 ovarian"}, "HCT-15 colon": {"test_system": "HCT-15 colon"}, "EKVX NSCLC": {"test_system": "EKVX NSCLC"}, "OVCAR-8 ovarian": {"test_system": "OVCAR-8 ovarian"}, "NCI/ADR-RES ovarian": {"test_system": "NCI/ADR-RES ovarian"}, "SF-295 CNS": {"test_system": "SF-295 CNS"}, "UO-31 renal": {"test_system": "UO-31 renal"}, "RXF 393 renal": {"test_system": "RXF 393 renal"}, "ACHN renal": {"test_system": "ACHN renal"}, "SK-MEL-28 melanoma": {"test_system": "SK-MEL-28 melanoma"}, "A549 NSCLC": {"test_system": "A549 NSCLC"}, "MDA-N": {"test_system": "MDA-N"}, "HT29 colon": {"test_system": "HT29 colon"}, "PC-3 prostate": {"test_system": "PC-3 prostate"}, "MCF7 breast": {"test_system": "MCF7 breast"}, "TK-10 renal": {"test_system": "TK-10 renal"}, "UACC-257 melanoma": {"test_system": "UACC-257 melanoma"}, "T-47D breast": {"test_system": "T-47D breast"}, "HL-60(TB) leukemia": {"test_system": "HL-60(TB) leukemia"}, "OVCAR-5 ovarian": {"test_system": "OVCAR-5 ovarian"}, "SK-OV-3 ovarian": {"test_system": "SK-OV-3 ovarian"}, "SNB-19 CNS": {"test_system": "SNB-19 CNS"}, "MOLT-4 leukemia": {"test_system": "MOLT-4 leukemia"}, "K-562 leukemia": {"test_system": "K-562 leukemia"}, "HS 578T breast": {"test_system": "HS 578T breast"}, "COLO 205 colon": {"test_system": "COLO 205 colon"}, "OVCAR-4 ovarian": {"test_system": "OVCAR-4 ovarian"}, "BT-549 breast": {"test_system": "BT-549 breast"}, "U251 CNS": {"test_system": "U251 CNS"}, "MALME-3M melanoma": {"test_system": "MALME-3M melanoma"}, "M14 melanoma": {"test_system": "M14 melanoma"}, "A498 renal": {"test_system": "A498 renal"}, "NCI-H522 lung": {"test_system": "NCI-H522 lung"}, "RPMI-8226 leukemia": {"test_system": "RPMI-8226 leukemia"}, "DU-145 prostate": {"test_system": "DU-145 prostate"}, "NCI-H23 lung": {"test_system": "NCI-H23 lung"}, "NCI-H460 lung": {"test_system": "NCI-H460 lung"}, "OVCAR-3 ovarian": {"test_system": "OVCAR-3 ovarian"}, "KM12 colon": {"test_system": "KM12 colon"}, "SF-268 CNS": {"test_system": "SF-268 CNS"}, "SW-620 colon": {"test_system": "SW-620 colon"}, "LOX IMVI melanoma": {"test_system": "LOX IMVI melanoma"}, "MDA-MB-231 breast": {"test_system": "MDA-MB-231 breast"}, "HCT-116 colon": {"test_system": "HCT-116 colon"}, "SNB-75 CNS": {"test_system": "SNB-75 CNS"}, "HOP-62 NSCLC": {"test_system": "HOP-62 NSCLC"}, "HCC-2998 colon": {"test_system": "HCC-2998 colon"}, "786-0 renal": {"test_system": "786-0 renal"}, "CCRF-CEM leukemia": {"test_system": "CCRF-CEM leukemia"}}, "note": "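Exposure lasted 48 hours, with cells grown in 96-well plates and compounds tested at five concentrations. TGI is the concentration that stops growth completely.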", "data": [{"smiles": "Cc1c(-c2ccccc2)c(-c2ccc(OCCN(C)C)cc2)n2ccccc12", "values": [{"measurement": "TGI", "setting": "SF-539 CNS", "result": 24.8, "unit": "µM"}, {"measurement": "TGI", "setting": "SN12C renal", "result": 25.4, "unit": "µM"}, {"measurement": "TGI", "setting": "SK-MEL-2 melanoma", "result": 21.2, "unit": "µM"}, {"measurement": "TGI", "setting": "NCI-H226 lung", "result": 30.9, "unit": "µM"}, {"measurement": "TGI", "setting": "UACC-62 melanoma", "result": 3.66, "unit": "µM"}, {"measurement": "TGI", "setting": "SR leukemia", "result": 6.49, "unit": "µM"}, {"measurement": "TGI", "setting": "CAKI-1 renal", "result": 23.9, "unit": "µM"}, {"measurement": "TGI", "setting": "HOP-92 NSCLC", "result": 24.6, "unit": "µM"}, {"measurement": "TGI", "setting": "SK-MEL-5 melanoma", "result": 3.44, "unit": "µM"}, {"measurement": "TGI", "setting": "MDA-MB-435", "result": 11.4, "unit": "µM"}, {"measurement": "TGI", "setting": "IGROV1 ovarian", "result": 23.8, "unit": "µM"}, {"measurement": "TGI", "setting": "HCT-15 colon", "result": 8.06, "unit": "µM"}, {"measurement": "TGI", "setting": "EKVX NSCLC", "result": 31.8, "unit": "µM"}, {"measurement": "TGI", "setting": "OVCAR-8 ovarian", "result": 28.5, "unit": "µM"}, {"measurement": "TGI", "setting": "NCI/ADR-RES ovarian", "result": 27.5, "unit": "µM"}, {"measurement": "TGI", "setting": "SF-295 CNS", "result": 26.7, "unit": "µM"}, {"measurement": "TGI", "setting": "UO-31 renal", "result": 23.7, "unit": "µM"}, {"measurement": "TGI", "setting": "RXF 393 renal", "result": 25.7, "unit": "µM"}, {"measurement": "TGI", "setting": "ACHN renal", "result": 27.8, "unit": "µM"}, {"measurement": "TGI", "setting": "SK-MEL-28 melanoma", "result": 3.45, "unit": "µM"}, {"measurement": "TGI", "setting": "A549 NSCLC", "result": 29, "unit": "µM"}, {"measurement": "TGI", "setting": "MDA-N", "result": 14.3, "unit": "µM"}, {"measurement": "TGI", "setting": "HT29 colon", "result": 3.46, "unit": "µM"}, {"measurement": "TGI", "setting": "PC-3 prostate", "result": 20.3, "unit": "µM"}, {"measurement": "TGI", "setting": "MCF7 breast", "result": 23.7, "unit": "µM"}, {"measurement": "TGI", "setting": "TK-10 renal", "result": 27.3, "unit": "µM"}, {"measurement": "TGI", "setting": "UACC-257 melanoma", "result": 4.16, "unit": "µM"}, {"measurement": "TGI", "setting": "T-47D breast", "result": 22.9, "unit": "µM"}, {"measurement": "TGI", "setting": "HL-60(TB) leukemia", "result": 19.4, "unit": "µM"}, {"measurement": "TGI", "setting": "OVCAR-5 ovarian", "result": 28.8, "unit": "µM"}, {"measurement": "TGI", "setting": "SK-OV-3 ovarian", "result": 30.2, "unit": "µM"}, {"measurement": "TGI", "setting": "SNB-19 CNS", "result": 25.3, "unit": "µM"}, {"measurement": "TGI", "setting": "MOLT-4 leukemia", "result": 15.8, "unit": "µM"}, {"measurement": "TGI", "setting": "K-562 leukemia", "result": 4.14, "unit": "µM"}, {"measurement": "TGI", "setting": "HS 578T breast", "result": 20.9, "unit": "µM"}, {"measurement": "TGI", "setting": "COLO 205 colon", "result": 3.08, "unit": "µM"}, {"measurement": "TGI", "setting": "OVCAR-4 ovarian", "result": 26.1, "unit": "µM"}, {"measurement": "TGI", "setting": "BT-549 breast", "result": 18.7, "unit": "µM"}, {"measurement": "TGI", "setting": "U251 CNS", "result": 24.7, "unit": "µM"}, {"measurement": "TGI", "setting": "MALME-3M melanoma", "result": 17.3, "unit": "µM"}, {"measurement": "TGI", "setting": "M14 melanoma", "result": 3.45, "unit": "µM"}, {"measurement": "TGI", "setting": "A498 renal", "result": 29.1, "unit": "µM"}, {"measurement": "TGI", "setting": "NCI-H522 lung", "result": 24, "unit": "µM"}, {"measurement": "TGI", "setting": "RPMI-8226 leukemia", "result": 6.96, "unit": "µM"}, {"measurement": "TGI", "setting": "DU-145 prostate", "result": 26.3, "unit": "µM"}, {"measurement": "TGI", "setting": "NCI-H23 lung", "result": 32, "unit": "µM"}, {"measurement": "TGI", "setting": "NCI-H460 lung", "result": 7.3, "unit": "µM"}, {"measurement": "TGI", "setting": "OVCAR-3 ovarian", "result": 26.1, "unit": "µM"}, {"measurement": "TGI", "setting": "KM12 colon", "result": 15.1, "unit": "µM"}, {"measurement": "TGI", "setting": "SF-268 CNS", "result": 34.2, "unit": "µM"}, {"measurement": "TGI", "setting": "SW-620 colon", "result": 17.9, "unit": "µM"}, {"measurement": "TGI", "setting": "LOX IMVI melanoma", "result": 5.81, "unit": "µM"}, {"measurement": "TGI", "setting": "MDA-MB-231 breast", "result": 23.6, "unit": "µM"}, {"measurement": "TGI", "setting": "HCT-116 colon", "result": 19, "unit": "µM"}, {"measurement": "TGI", "setting": "SNB-75 CNS", "result": 22.4, "unit": "µM"}, {"measurement": "TGI", "setting": "HOP-62 NSCLC", "result": 28.6, "unit": "µM"}, {"measurement": "TGI", "setting": "HCC-2998 colon", "result": 3.27, "unit": "µM"}, {"measurement": "TGI", "setting": "786-0 renal", "result": 20.9, "unit": "µM"}, {"measurement": "TGI", "setting": "CCRF-CEM leukemia", "result": 15.5, "unit": "µM"}]}]}
